Source: US20150246093A1, “ORAL FORMULATIONS OF ANGIOTENSIN” (TARIX PHARMACEUTICALS LTD., priority 2012, published 2015)
“And” between values parts separate entries of the source, which are not always exact repeats. Equal values may be shown once. Read-outs that look alike come from different tables or passages of the source.

Assay: Pharmacokinetics after intra-duodenal injection (ID) in anesthetized rats, model mimicking enteric-coated oral dosage form, plasma LC-MS
Type: in vivo, rat
Settings: for Total mean A(1-7) exposure over the observation period: ID; for level at 0 h / level at 10 min / level at 20 min / level at 40 min / level at 1 h / level at 1.5 h / level at 5 min: read-out: Angiotensin (1-7) concentration
Procedure: This model mimics the release and absorption expected from an orally delivered enteric coated solid dosage form such as capsule or tablet.
After extraction, the samples were then transferred to ice-cold tubes containing a protease inhibitor cocktail. The samples were kept on ice until they were centrifuged at 4° C. to obtain plasma. The plasma supernatants were then frozen −70° C. until analysis using an LC-MS assay.
The oral delivery of an angiotensin (1-7) peptide (e.g., TXA127) was then evaluated in a rat model that mimics the release of the peptide into the intestine by enteric-coated capsule. Briefly, the duodenums of anesthetized rats were surgically exposed, and an angiotensin (1-7) peptide was delivered through a 27 gauge needle into the duodenum. A baseline was obtained by ID administration of an angiotensin (1-7) in PBS. Samples of blood was removed from the carotid artery before and 5, 10, 20, 40, 60 and 90 minutes after peptide administration. Subsequently, an angiotensin (1-7) peptide was administered ID in 400 mM citrate buffer (pH 3.5) and lauroyl-L-carnitine (LLC) (10 mg/ml), a formulation that mimics the contents of the enteric-coated capsules. In order to maximize the stability of TXA127 in rat circulation, captopril (e.g., 0.5 mg/ml or 5 mg/ml) may be added to the formulations. Blood samples were taken at the same time points as the baseline study and handled as described above for analysis.

[1] = ID 0.3 ml A [10 mg/ml in PBS], individual rats
[2] = ID 0.3 ml B [10 mg/ml, 10 mg/ml LLC, 400 mM Citrate pH 3.5, 150 mM NaCl], individual rats
[3] = ID 0.3 ml C [10 mg/ml, Captopril 0.5 mg/ml, 10 mg/ml LLC, 400 mM Citrate pH 3.5, 150 mM NaCl], individual rats
[4] = ID 0.3 ml C [10 mg/ml, Captopril 5 mg/ml, 10 mg/ml LLC, 400 mM Citrate pH 3.5, 150 mM NaCl], individual rats

## CC[C@H](C)[C@H](NC(=O)[C@H](Cc1ccc(O)cc1)NC(=O)[C@@H](NC(=O)[C@H](CCCNC(=N)N)NC(=O)[C@@H](N)CC(=O)O)C(C)C)C(=O)N[C@@H](Cc1c[nH]cn1)C(=O)N1CCC[C@H]1C(=O)O [Angiotensin (1-7), Asp^1-Arg^2-Val^3-Tyr^4-Ile^5-His^6-Pro^7]
[1]
  AUC0-90: 123 ng·min/mL and 881 ng·min/mL and 181 ng·min/mL and 456 ng·min/mL and 166 ng·min/mL and 616 ng·min/mL
  Cmax: 3.44 ng/mL and 15 ng/mL and 4 ng/mL and 9 ng/mL and 3 ng/mL and 10.4 ng/mL
  Half-Life: 51 min and 140 min and 23 min and 7 min
ID 0.3 ml A [10 mg/ml in PBS], time point 0 min (before administration), individual rats
  Angiotensin (1-7) concentration: 0.23 ng/mL and 0.0 ng/mL and 1.54 ng/mL and 1.00 ng/mL and 1.84 ng/mL and 5.81 ng/mL
ID 0.3 ml A [10 mg/ml in PBS], time point 5 min, individual rats
  Angiotensin (1-7) concentration: 0.84 ng/mL and 12.3 ng/mL and 0.94 ng/mL and 0.88 ng/mL and 0.891 ng/mL and 9.24 ng/mL
ID 0.3 ml A [10 mg/ml in PBS], time point 10 min, individual rats
  Angiotensin (1-7) concentration: 3.44 ng/mL and 6.38 ng/mL and 1.08 ng/mL and 0.99 ng/mL and 1.12 ng/mL and 4.08 ng/mL
ID 0.3 ml A [10 mg/ml in PBS], time point 20 min, individual rats
  Angiotensin (1-7) concentration: 0.62 ng/mL and 13.3 ng/mL and 1.91 ng/mL and 1.79 ng/mL and 1.80 ng/mL and 2.05 ng/mL
ID 0.3 ml A [10 mg/ml in PBS], time point 40 min, individual rats
  Angiotensin (1-7) concentration: 0.27 ng/mL and 15.4 ng/mL and 1.22 ng/mL and 4.14 ng/mL and 1.30 ng/mL and 3.89 ng/mL
ID 0.3 ml A [10 mg/ml in PBS], time point 60 min, individual rats
  Angiotensin (1-7) concentration: 1.55 ng/mL and 6.27 ng/mL and 3.97 ng/mL and 8.75 ng/mL and 3.07 ng/mL and 10.4 ng/mL
ID 0.3 ml A [10 mg/ml in PBS], time point 90 min, individual rats
  Angiotensin (1-7) concentration: 2.61 ng/mL and 7.19 ng/mL and 0.78 ng/mL and 7.54 ng/mL and 1.23 ng/mL and 10.4 ng/mL
[2]
  AUC0-90: 19,502.2 ng*min/mL and 1,777.5 ng*min/mL and 422.8 ng*min/mL and 1,168.2 ng*min/mL and 2,100.6 ng*min/mL and 669.9 ng*min/mL
  Cmax: >1000 ng/mL and 259.0 ng/mL and 19.3 ng/mL and 89.7 ng/mL and 60.7 ng/mL and 56.4 ng/mL
  Half-Life: 9.3 min and 173.3 min and 23.8 min and 25.2 min and 21.6 min and 25.0 min
ID 0.3 ml B [10 mg/ml, 10 mg/ml LLC, 400 mM Citrate pH 3.5, 150 mM NaCl], time point 0 min (before administration), individual rats
  Angiotensin (1-7) concentration: 1.46 ng/mL
ID 0.3 ml B [10 mg/ml, 10 mg/ml LLC, 400 mM Citrate pH 3.5, 150 mM NaCl], time point 5 min, individual rats
  Angiotensin (1-7) concentration: >1000 ng/mL and 259 ng/mL and 3.48 ng/mL and 89.7 ng/mL and 60.7 ng/mL and 56.38 ng/mL
ID 0.3 ml B [10 mg/ml, 10 mg/ml LLC, 400 mM Citrate pH 3.5, 150 mM NaCl], time point 10 min, individual rats
  Angiotensin (1-7) concentration: >1000 ng/mL and 21 ng/mL and 19.3 ng/mL and 15.2 ng/mL and 59.6 ng/mL and 17.92 ng/mL
ID 0.3 ml B [10 mg/ml, 10 mg/ml LLC, 400 mM Citrate pH 3.5, 150 mM NaCl], time point 20 min, individual rats
  Angiotensin (1-7) concentration: 59.9 ng/mL and 7.35 ng/mL and 6.02 ng/mL (2×) and 18.4 ng/mL and 51.2 ng/mL
ID 0.3 ml B [10 mg/ml, 10 mg/ml LLC, 400 mM Citrate pH 3.5, 150 mM NaCl], time point 40 min, individual rats
  Angiotensin (1-7) concentration: 4.88 ng/mL and 5.6 ng/mL and 2.32 ng/mL and 5.05 ng/mL and 11.7 ng/mL and 1.11 ng/mL
ID 0.3 ml B [10 mg/ml, 10 mg/ml LLC, 400 mM Citrate pH 3.5, 150 mM NaCl], time point 60 min, individual rats
  Angiotensin (1-7) concentration: 4.74 ng/mL and 1.7 ng/mL and 3.99 ng/mL and 6.36 ng/mL and 10.9 ng/mL and 3.48 ng/mL
ID 0.3 ml B [10 mg/ml, 10 mg/ml LLC, 400 mM Citrate pH 3.5, 150 mM NaCl], time point 90 min, individual rats
  Angiotensin (1-7) concentration: 3.93 ng/mL and 3.99 ng/mL and 1.11 ng/mL and 4.43 ng/mL and 4.74 ng/mL and 3.39 ng/mL
[3]
  AUC0-90: 9,257 ng*min/mL and 20,442 ng*min/mL and 7,394 ng*min/mL and 2,252 ng*min/mL (2×) and 6,495 ng*min/mL
  Cmax: 879.0 ng/mL and >1000 ng/mL and 468.0 ng/mL and 83.0 ng/mL (2×) and 735.0 ng/mL
  Half-Life: 11.9 min and 29.1 min and 13.9 min and 18.3 min (2×) and 17.9 min
ID 0.3 ml C [10 mg/ml, Captopril 0.5 mg/ml, 10 mg/ml LLC, 400 mM Citrate pH 3.5, 150 mM NaCl], time point 0 min (before administration), Average
  Angiotensin (1-7) concentration: 1.1 ng/mL
[4]
  AUC0-90: 26,654 ng*min/mL and 1,008 ng*min/mL and 7,641 ng*min/mL and 10,668 ng*min/mL and 6,228 ng*min/mL and 3,862 ng*min/mL
  Cmax: <1000 ng/mL and 33.5 ng/mL and 504 ng/mL and 746.0 ng/mL and 391.25 ng/mL and 432.85 ng/mL
  Half-Life: 10.55 min and 7.97 min and 15.45 min and 11.94 min and 12.86 min and 25.62 min
ID 0.3 ml C [10 mg/ml, Captopril 5 mg/ml, 10 mg/ml LLC, 400 mM Citrate pH 3.5, 150 mM NaCl], time point 0 min (before administration), Average
  Angiotensin (1-7) concentration: 2.42 ng/mL
0.3 mL of 10 mg/mL A(1-7) formulated in PBS, 6 rats
  Total mean A(1-7) exposure over the observation period: 403 ng·min/mL
0.3 mL of 10 mg/mL A(1-7) with 0.5 mg/mL captopril (as printed in the text on Table 5), 10 mg/mL LLC, 400 mM Citrate, 150 mM NaCl pH 3.5, six rats
  Total mean A(1-7) exposure over the observation period: 9,399 ng*min/mL
0.3 mL of 10 mg/mL A(1-7) with 0.5 mg/mL captopril, 10 mg/mL LLC, 400 mM Citrate, 150 mM NaCl pH 3.5, seven rats (Table 4)
  Total mean A(1-7) exposure over the observation period: 7,152 ng*min/mL
0.3 mL of 10 mg/mL A(1-7) with 10 mg/mL LLC, 400 mM Citrate, 150 mM NaCl pH 3.5
  Total mean A(1-7) exposure over the observation period: 4,274 ng*min/mL
Formulation according to the invention (citrate, LLC, with or without captopril), rat model mimicking oral delivery
  Half-life and total exposure compared to the baseline profile of angiotensin (1-7) delivered in PBS: significantly improved half-life and total exposure
rat, plasma, 3 mg per rat, pH 3.5, ID 0.3 ml B [10 mg/ml, 10 mg/ml LLC, 400 mM Citrate pH 3.5, 150 mM NaCl], time point 0 min (before administration), Average
  level at 0 h: 1.51 ng/mL
rat, plasma, 3 mg per rat, pH 3.5, ID 0.3 ml B [10 mg/ml, 10 mg/ml LLC, 400 mM Citrate pH 3.5, 150 mM NaCl], time point 10 min, Average
  level at 10 min: 204 ng/mL
rat, plasma, 3 mg per rat, pH 3.5, ID 0.3 ml B [10 mg/ml, 10 mg/ml LLC, 400 mM Citrate pH 3.5, 150 mM NaCl], time point 20 min, Average
  level at 20 min: 24.8 ng/mL
rat, plasma, 3 mg per rat, pH 3.5, ID 0.3 ml B [10 mg/ml, 10 mg/ml LLC, 400 mM Citrate pH 3.5, 150 mM NaCl], time point 40 min, Average
  level at 40 min: 5.11 ng/mL
rat, plasma, 3 mg per rat, pH 3.5, ID 0.3 ml B [10 mg/ml, 10 mg/ml LLC, 400 mM Citrate pH 3.5, 150 mM NaCl], time point 60 min, Average
  level at 1 h: 5.2 ng/mL
rat, plasma, 3 mg per rat, pH 3.5, ID 0.3 ml B [10 mg/ml, 10 mg/ml LLC, 400 mM Citrate pH 3.5, 150 mM NaCl], time point 90 min, Average
  level at 1.5 h: 3.6 ng/mL
rat, plasma, 3 mg, ID 0.3 ml A [10 mg/ml in PBS], time point 0 min (before administration), Average
  level at 0 h: 1.74 ng/mL
rat, plasma, 3 mg, ID 0.3 ml A [10 mg/ml in PBS], time point 5 min, Average
  level at 5 min: 4.18 ng/mL
rat, plasma, 3 mg, ID 0.3 ml A [10 mg/ml in PBS], time point 10 min, Average
  level at 10 min: 2.85 ng/mL
rat, plasma, 3 mg, ID 0.3 ml A [10 mg/ml in PBS], time point 20 min, Average
  level at 20 min: 3.58 ng/mL
rat, plasma, 3 mg, ID 0.3 ml A [10 mg/ml in PBS], time point 40 min, Average
  level at 40 min: 4.37 ng/mL
rat, plasma, 3 mg, ID 0.3 ml A [10 mg/ml in PBS], time point 60 min, Average
  level at 1 h: 5.67 ng/mL
rat, plasma, 3 mg, ID 0.3 ml A [10 mg/ml in PBS], time point 90 min, Average
  level at 1.5 h: 4.96 ng/mL
rat, plasma, 3 mg, pH 3.5, ID 0.3 ml B [10 mg/ml, 10 mg/ml LLC, 400 mM Citrate pH 3.5, 150 mM NaCl], time point 5 min, Average
  level at 5 min: 417 ng/mL
rat, plasma, other: intra-duodenal injection (ID), 3 mg, ID 0.3 ml A [10 mg/ml in PBS], Average (PK value of the mean concentrations), read-out: AUC0-90 (converted)
  AUC(0-t): 6.73 ng·h/mL
rat, plasma, other: intra-duodenal injection (ID), 3 mg, ID 0.3 ml A [10 mg/ml in PBS], Average (PK value of the mean concentrations), read-out: Cmax
  Cmax: 5.7 ng/mL
rat, plasma, other: intra-duodenal injection (ID), 3 mg, ID 0.3 ml A [10 mg/ml in PBS], Average (PK value of the mean concentrations), read-out: Half-Life
  Half-Life: 155 min
